Patent US7902226B2, “Dehalogeno-compounds” (Daiichi Pharmaceutical Co., Ltd., priority 2000, dated 2011)
Values after ≈ are worked out from the molar mass of the structure shown.

Tests used:
Experiment in all cases: Antibacterial activity (MIC), standard method of the Japan Society of Chemotherapy
Assay type in all cases: cell-based
S. aureus, 870307 = details: Staphylococcus aureus
In short: (§1)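 Read-out is the minimum inhibitory concentration in µg/ml, measured following the Japan Society of Chemotherapy standard procedure.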

[1] = tested on: Str. faecalis, ATCC 19433; details: Enterococcus faecalis, ATCC19433
In short: as §1

Ps. aeruginosa, 32104 = details: Pseudomonas aeruginosa
In short: as §1

S. epidermidis, 56500 = details: Staphylococcus epidermidis
In short: as §1

Pr. vulgalis, 08601 = tested on: Pr. vulgalis, 08601
In short: as §1

Ser. marcescens, 10100 = details: Serratia marcescens
In short: as §1

Str. pyogenes, G-36 = details: Streptococcus pyogenes, G36
In short: as §1

E. coli, NIHJ = details: Escherichia coli
In short: as §1

[2] = tested on: Ps. maltophilia, IID-1275; details: Stenotrophomonas maltophilia, IID1275
In short: as §1

Structure (SMILES)	MIC (S. aureus, 870307)	MIC [1]	MIC (Ps. aeruginosa, 32104)	MIC (S. epidermidis, 56500)	MIC (Pr. vulgalis, 08601)	MIC (Ser. marcescens, 10100)	MIC (Str. pyogenes, G-36)	MIC (E. coli, NIHJ)	MIC [2]
Cc1c(N2CC[C@@H](C3(N)CC3)C2)c(F)cc2c(=O)c(C(=O)O)cn([C@@H]3C[C@@H]3F)c12 [Reference drug 1, 7-[3-(R)-(1-aminocyclopropyl)pyrrolidin-1-yl]-6-fluoro-1-[2-(S)-fluoro-1-(R)-cyclopropyl]-8-methyl-1,4-dihydro-4-oxoquinoline-3-carboxylic acid, reference compound]	0.012 µg/mL (≈ 0.0297 µM)	0.006 µg/mL (≈ 0.0149 µM)	0.025 µg/mL (≈ 0.062 µM)	≤ 0.003 µg/mL	≤ 0.003 µg/mL	0.012 µg/mL (≈ 0.0297 µM)	≤ 0.003 µg/mL	≤ 0.003 µg/mL	≤ 0.003 µg/mL
Cc1c(N2CC[C@@H](C3(N)CC3)C2)ccc2c(=O)c(C(=O)O)cn([C@@H]3C[C@@H]3F)c12 [Example 1, 7-[3-(R)-(1-aminocyclopropyl)pyrrolidin-1-yl]-1-[2-(S)-fluoro-1-(R)-cyclopropyl]-1,4-dihydro-8-methyl-4-oxoquinoline-3-carboxylic acid]	0.05 µg/mL (≈ 0.13 µM)	0.012 µg/mL (≈ 0.0311 µM)	0.05 µg/mL (≈ 0.13 µM)	≤ 0.003 µg/mL	≤ 0.003 µg/mL	0.025 µg/mL (≈ 0.0649 µM)	≤ 0.003 µg/mL	≤ 0.003 µg/mL	0.2 µg/mL (≈ 0.519 µM)
